Target: CK1δ (Homo sapiens, UniProt P48730)
Assay: CK1δ kinase assay (Caliper LabChip electrophoretic separation of fluoresceinated peptide substrate and product)
Format: biochemical
Details: 200 pM CK1δ, 50 μM ATP, 1.5 μM peptide, 22 hours at room temperature; read-out: CK1δ IC50 range
Method: CK1ε and CK1δ Kinase Assays
The kinase assay was performed in V-bottom 384-well plates. […] The reaction was incubated at room temperature for 22 hours and terminated by adding 45 μl of 35 mM EDTA to each sample. The reaction mixture was analyzed on the Caliper LABCHIP®3000 (Caliper, Hopkinton, Mass.) by electrophoretic separation of the unphosphorylated substrate and phosphorylated product. […] Compounds were dissolved at 10 mM in dimethylsulfoxide (DMSO) and evaluated at eleven concentrations. IC50 values were derived by non-linear regression analysis.

Sequence of CK1δ (P48730 whole entry): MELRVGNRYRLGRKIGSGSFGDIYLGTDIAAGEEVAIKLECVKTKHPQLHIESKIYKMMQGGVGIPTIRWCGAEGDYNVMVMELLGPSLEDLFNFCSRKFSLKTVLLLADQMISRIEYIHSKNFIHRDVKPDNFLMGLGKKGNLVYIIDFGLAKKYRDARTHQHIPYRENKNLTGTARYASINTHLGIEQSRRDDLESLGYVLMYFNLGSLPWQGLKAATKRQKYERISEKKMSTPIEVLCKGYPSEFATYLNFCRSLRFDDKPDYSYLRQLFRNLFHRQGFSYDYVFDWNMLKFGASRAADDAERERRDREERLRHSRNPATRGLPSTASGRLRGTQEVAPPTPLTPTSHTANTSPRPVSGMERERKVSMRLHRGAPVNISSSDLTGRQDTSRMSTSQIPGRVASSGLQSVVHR

With `NC(=O)c1c(-c2ccc(F)c(Cl)c2)nn2c1CN(C(=O)NC13CCC(C(F)F)(CC1)CC3)CC2` [Compound A57, 2-(3-Chloro-4-fluorophenyl)-N^5-(4-(difluoromethyl)bicyclo[2.2.2]octan-1-yl)-6,7-dihydropyrazolo[1,5-a]pyrazine-3,5(4H)-dicarboxamide] as the compound, how does the IC50 read?
Its IC50 is 0.01 to 10 nM.

Which IC50 does the source give for `CO[C@H]1C[C@H](NC(=O)N2CCn3nc(-c4ccc(F)c(Cl)c4)c(C(N)=O)c3C2)C1` [Compound 192, 2-(3-Chloro-4-fluorophenyl)-N^5-((1r,3r)-3-methoxycyclobutyl)-6,7-dihydropyrazolo[1,5-a] pyrazine-3,5(4H)-dicarboxamide] here?
The IC50 was 0.01 to 10 nM.

Which IC50 does the source give for `NC(=O)c1c(-c2ccc(F)c(Cl)c2)nn2c1CN(C(=O)NCC1CCC(F)(F)CC1)CC2` [Compound 194, 2-(3-Chloro-4-fluorophenyl)-N^5-((4,4-difluorocyclohexyl)methyl)-6,7-dihydropyrazolo[1,5-a] pyrazine-3,5(4H)-dicarboxamide] here?
The IC50 was 0.01 to 10 nM.

How did the IC50 turn out when `CC(F)(F)C(C)(C)NC(=O)N1CCn2nc(-c3ccc(Cl)c(Cl)c3)c(C(N)=O)c2C1` [Compound 201, 2-(3,4-Dichlorophenyl)-N^5-(3,3-difluoro-2-methylbutan-2-yl)-6,7-dihydropyrazolo[1,5-a] pyrazine-3,5(4H)-dicarboxamide] was run?
Its IC50 is 0.01 to 10 nM.

`CC1(CNC(=O)N2CCn3nc(-c4ccc(Cl)c(Cl)c4)c(C(N)=O)c3C2)CC(F)(F)C1` [Compound 231, 2-(3,4-Dichlorophenyl)-N^5-((3,3-difluoro-1-methylcyclobutyl)methyl)-6,7-dihydropyrazolo[1,5-a] pyrazine-3,5(4H)-dicarboxamide] was tested. Which IC50 did it give?
The IC50 was 0.01 to 10 nM.

For `NC(=O)c1c(-c2ccc(Cl)c(Cl)c2)nn2c1CN(C(=O)NC1CC3(CC3)C1)CC2` [Compound 207, 2-(3,4-Dichlorophenyl)-N^5-(spiro[2.3]hexan-5-yl)-6,7-dihydropyrazolo [1,5-a]pyrazine-3,5(4H)-dicarboxamide], which IC50 is on record?
The IC50 was 0.01 to 10 nM.

`NC(=O)c1c(-c2cccc(Cl)c2)nn2c1CN(C(=O)N[C@@H]1CC[C@H]1COC(F)F)CC2` [Compound 242, 2-(3-Chlorophenyl)-N^5-((1R,2R)-2-((difluoromethoxy)methyl)cyclobutyl)-6,7-dihydropyrazolo[1,5-a] pyrazine-3,5(4H)-dicarboxamide] was tested. Which IC50 did it give?
The IC50 was 0.01 to 10 nM.

For `N#Cc1ccc([C@H]2C[C@@H](NC(=O)N3CCn4nc(-c5ccc(F)c(Cl)c5)c(C(N)=O)c4C3)C2)cc1` [Compound 282, 2-(3-Chloro-4-fluorophenyl)-N^5-((1s,3s)-3-(4-cyanophenyl)cyclobutyl)-6,7-dihydropyrazolo[1,5-a]pyrazine-3,5(4H)-dicarboxamide], which IC50 is on record?
The IC50 was 0.01 to 10 nM.

With `N#Cc1ccc(C23CCC(NC(=O)N4CCn5nc(-c6cccc(Cl)c6)c(C(N)=O)c5C4)(CC2)CC3)cc1` [Compound A74, 2-(3-Chlorophenyl)-N^5-(4-(4-cyanophenyl)bicyclo[2.2.2]octan-1-yl)-6,7-dihydropyrazolo[1,5-a]pyrazine-3,5(4H)-dicarboxamide] as the compound, how does the IC50 read?
Its IC50 is 0.01 to 10 nM.

`NC(=O)c1c(-c2ccc(F)c(Cl)c2)nn2c1CN(C(=O)N[C@@H]1CC[C@@H]1C(F)F)CC2` [Compound 238, 2-(3-Chloro-4-fluorophenyl)-N^5-((1R,2S)-2-(difluoromethyl)cyclobutyl)-6,7-dihydropyrazolo[1,5-a]pyrazine-3,5(4H)-dicarboxamide] was tested. Which IC50 did it give?
Its IC50 is 0.01 to 10 nM.

Which IC50 does the source give for `NC(=O)c1c(-c2ccc(F)c(Cl)c2)nn2c1CN(C(=O)NC1(COC(F)F)CCC1)CC2` [Compound 223, 2-(3-Chloro-4-fluorophenyl)-N^5-(1-((difluoromethoxy)methyl)cyclobutyl)-6,7-dihydropyrazolo[1,5-a]pyrazine-3,5(4H)-dicarboxamide] here?
The IC50 was 0.01 to 10 nM.

How did the IC50 turn out when `CC(C)(C)NC(=O)N1Cc2c(C(N)=O)c(-c3ccc(F)c(Cl)c3)nn2C(CCO)C1` (single isomer, unassigned) [Compound A97, N^5-(tert-Butyl)-2-(3-chloro-4-fluorophenyl)-7-(2-hydroxyethyl)-6,7-dihydropyrazolo[1,5-a]pyrazine-3,5(4H)-dicarboxamide] was run?
The IC50 was 0.01 to 10 nM.

— patent US9273058B2 (BRISTOL-MYERS SQUIBB COMPANY, priority 2013, dated 2016)
